# Earlier results in patent US20190000794A1, “TRANSMUCOSAL CANNABINOID FORMULATION INCLUDING A CHITOSAN EXCIPEINT” (priority 2017, published 2019).
# Conditions: oral consumption; first pass metabolism in the liver
smiles,measurement,value
"CCCCCc1cc(O)c2c(c1)OC(C)(C)[C@@H]1CCC(C)=C[C@@H]21 [THC, trans-Δ^9-tetrahydrocannabinol]",fraction of THC consumed orally that is metabolized through first pass metabolism,up to 97%
